Results published in patent publication US20070160691A1, “Pharmaceutical composition for treating and preventing cancer comprising cinnamoni cortex extract and zizyphi fructus extract” (KOREA RESEARCH INSTITUTE OF BIOSCIENCE AND BIOTECH, priority 2003, published 2007).

Key:
[1] = system: MDA-MB-231 breast cancer cells; experiment: DNA fragmentation (apoptosis induction), agarose gel electrophoresis; assay type: cell-based; conditions: MDA-MB-231 cells, 10 μM and 30 μM HCA, 48 hrs, compared to DMSO; FIG. 1
Protocol: (§1) MDA-MB-231 breast cancer cells and SW620 colon cancer cells were seeded onto 100-mm culture dishes at densities of 1×10^6 and 2×10^6 cells, respectively. After 18 hrs, the cells were treated with 10 μM and 30 μM of 2′-hydroxycinnamaldehyde(HCA) and further cultured for 48 hrs.
(§2) Then, to analyze DNA cleavage by the HCA treatment, the cells were lysed using RIPA buffer (50 mM Tris-HCl, pH 7.4, 150 mM NaCl, 5 mM EDTA, 1% NP-40, 1 mM sodium vanadate, 0.5% sodium deoxycholate, and 0.05% sodium deoxysulfate). The cell lysates were centrifuged at 13,000 rpm. The supernatants were subjected to phenol extraction to remove proteins, and the nucleic acid layers were recovered. Potassium acetate was added to each nucleic acid layer in a final concentration of 50 mM, and an equal volume of isopropyl alcohol was added thereto to precipitate nucleic acids. The precipitated nucleic acids were washed with 80% ethanol and dried. The dried nucleic acids were dissolved in 30 μl of TE buffer, and treated with Dnase-free RNase at 37° C. for 1 hr to remove RNA.
(§3) The resulting DNA samples were electrophoresed on a 1.5% agarose gel to investigate DNA fragmentation by HCA.

SW620 colon cancer cells = experiment: as above; assay type: cell-based, human; conditions: 10 μM and 30 μM HCA, 48 hrs, compared to DMSO, FIG. 1
Protocol: as §1, §2, §3

[2] = system: PARP (poly(ADP-ribose) polymerase) in MDA-MB-231 breast cancer cells; experiment: PARP cleavage by Western blotting; assay type: cell-based; conditions: MDA-MB-231 cells, 10 μM and 30 μM HCA, 48 hrs, compared to DMSO; FIG. 2
Protocol: (§4) MDA-MB-231 breast cancer cells and SW620 colon cancer cells were seeded onto 100-mm culture dishes at densities of 1×10^6 and 2×10^6 cells, respectively. After 18 hrs, the cells were treated with 10 μM and 30 μM of HCA and further cultured for 48 hrs.
(§5) Then, to analyze PARP (poly(ADP-ribose) polymerase) cleavage by the HCA treatment, the cells were lysed using RIPA buffer (50 mM Tris-HCl, pH 7.4, 150 mM NaCl, 5 mM EDTA, 1% NP-40, 1 mM sodium vanadate, 0.5% sodium deoxycholate, and 0.05% sodium deoxysulfate). The cell lysates were centrifuged at 13,000 rpm and the supernatants were recovered. In the supernatants, protein concentrations were determined using a Bradford reagent (Bio-Rad Protein Assay, USA). Protein samples of 30 μg were separated on a 7.5% SDS-PAGE (SDS-polyacrylamide gel electrophoresis) gel. Proteins were then electro-transferred onto a PVDF membrane. The blot was blocked using 5% skim milk in TBST (50 mM Tris-HCl, pH 7.6, 150 mM NaCl, 0.1% Tween 20). Intracellular PARP was detected using a PARP-specific antibody (Cell signaling Technology, USA), a HRP (horse radish peroxidase)-conjugated secondary antibody, and a chemiluminescence POD reagent (Roche, Germany).

[3] = system: PARP (poly(ADP-ribose) polymerase) in SW620 colon cancer cells; experiment: PARP cleavage by Western blotting; assay type: cell-based, human; conditions: 10 μM and 30 μM HCA, 48 hrs, compared to DMSO, FIG. 2
Protocol: as §4, §5

[4] = system: MDA-MB-231 breast cancer cells; experiment: Cancer cell migration assay in Boyden chamber; assay type: cell-based; conditions: 6 hrs, FIG. 3
Protocol: Cultured MDA-MB-231 breast cancer cells were detached from culture dishes using a trypsin/EDTA solution (Gifco, USA), neutralized with trypsin inhibitor (0.5 mg/ml, Sigma, USA), and washed twice with culture medium. The cells were then counted using a hematocytometer. Cell migration was assayed using a Boyden chamber. HCA was added to a lower compartment of the Boyden chamber through holes with concentrations of 0 μM, 1 μM, 5 μM and 10 μM. After the lower compartment of the Boyden chamber was covered with a polycarbonate membrane (8 μm pore, Neuro Probe, Inc, USA), an upper compartment of the Boyden chamber was assembled with the lower compartment, and […] MDA-MB-231 cells were inoculated in the upper compartment through holes. After the Boyden chamber was incubated in an incubator for 6 hrs, the membrane was immersed in methanol to fix the cells. Then, the membrane was air-dried, stained with a 10% Girkmsa staining solution (Sigma, USA)for 1 hr, and destained with water for 10 sec. Herein, after non-migratedcells (an upper side of the membrane) were removed using a swab, migrated cells (a lower side of the membrane) were counted under a microscope.

With O=C/C=C/c1ccccc1O [HCA, 2′-hydroxycinnamaldehyde] the “DNA fragmentation by HCA” value [1] was “fragmentation of chromosonal DNA into uniform DNA fragments”, the “DNA fragmentation by HCA” value (SW620 colon cancer cells) was “fragmentation of chromosonal DNA into uniform DNA fragments” and the PARP cleavage [2] was “a decrease in normal full-length PARP (116 kDa) and an increase in cleaved PARP (89 kDa)”. For the same compound, the PARP cleavage [3] was “a decrease in normal full-length PARP (116 kDa) and an increase in cleaved PARP (89 kDa)”, the inhibition at 30 µM ([4]; Homo sapiens, MDA-MB-231, at 30 μM) was > 50% and the “inhibition of cell migration” value ([4]; at 5 μM) was “inhibited cell migration”.
